Reference: patent US20200215082A1, “Dihydrotestosterone and Dihydrotestosterone Derivatives and Promoters in the Treatment of Cancer” (Tyme, Inc., priority 2016, published 2020)

Test system: cancerous tumor of the distal radius
Experiment: Treatment of a canine with a cancerous tumor of the distal radius (X-ray)
Assay type: in vivo
Details: after stanozolol administration, FIG. 1 before, FIG. 2 after, dose and route not given
Description: FIG. 1 is an X-ray depicting a cancerous tumor on the distal radius of a canine.
FIG. 2 is an X-ray depicting calcification of the cancerous tumor shown in FIG. 1 after treatment according to a preferred aspect of the disclosure.
A canine presenting with a cancerous tumor of the distal radius (see FIG. 1) was administered stanozolol.

stanozolol
calcification of the cancerous tumor: the cancerous tumor calcified
